Measurements as given in ChEMBL document CHEMBL1201862, “PubChem BioAssay data set” (2004).
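The compound was tested at five concentrations on cells cultured in 96-well plates, with a 48-hour exposure period. Abbreviation: GI50, concentration required for 50% inhibition of growth.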 Calls of active or inactive are those of the source. Cut-off read from the data, not from the text of the source: active = GI50 up to about 1.1 µM and inactive = higher.

Tests used:
Test in all cases: NCI tumour cell line growth inhibition, 48 h
OVCAR-4 = tested on: OVCAR-4
SF-295 = tested on: SF-295
OVCAR-3 = tested on: OVCAR-3
UO-31 = tested on: UO-31
HT-29 = tested on: HT-29
PC-3 = tested on: PC-3
K562 = tested on: K562
EKVX = tested on: EKVX
DU-145 = tested on: DU-145
KM12 = tested on: KM12
OVCAR-5 = tested on: OVCAR-5
NCI-H23 = tested on: NCI-H23
MDA-MB-435 = tested on: MDA-MB-435
NCI-H460 = tested on: NCI-H460
U-251 = tested on: U-251
SNB-78 = tested on: SNB-78
MOLT-4 = tested on: MOLT-4
SF-539 = tested on: SF-539
SNB-19 = tested on: SNB-19
UACC-62 = tested on: UACC-62

Measured: GI50

O=C(CSc1ncnc2[nH]cnc12)c1ccccc1
inactive: OVCAR-4 > 48 µM | SF-295 > 100 µM | OVCAR-3 > 100 µM | UO-31 > 95.7 µM | HT-29 > 100 µM | PC-3 > 100 µM | K562 41.3 µM | EKVX > 100 µM | DU-145 > 100 µM | KM12 > 41.1 µM | OVCAR-5 > 57.1 µM | NCI-H23 > 100 µM | MDA-MB-435 > 100 µM | NCI-H460 > 100 µM | U-251 > 100 µM | SNB-78 > 100 µM | MOLT-4 > 65.6 µM | SF-539 > 100 µM | SNB-19 > 100 µM | UACC-62 > 100 µM

c1ccc2cc3[s+]snc3cc2c1
inactive: OVCAR-4 > 100 µM | SF-295 > 100 µM | OVCAR-3 > 100 µM | UO-31 > 100 µM | HT-29 > 100 µM | K562 > 100 µM | EKVX > 100 µM | KM12 > 100 µM | OVCAR-5 > 100 µM | NCI-H23 > 100 µM | NCI-H460 > 100 µM | U-251 85.9 µM | SNB-78 > 100 µM | MOLT-4 > 100 µM | SF-539 > 100 µM | SNB-19 > 100 µM | UACC-62 > 100 µM
